Reference: patent publication US20240325351A1, “METHOD OF ADMINISTRATION” (Cybin UK Ltd., priority 2023, published 2024)
Where “and” joins values, the source holds several entries; their conditions need not be identical. Identical values can stand only once.

How the values were obtained:
[1] = test system: patients with moderate-severe Major Depressive Disorder; assay: Safety & Tolerability, same study; format: in vivo, human
Excerpt: (§1) An unblinded study of a single dose of N,N-dimethyltryptamine [DMT] fumarate in patients currently taking a selective serotonin reuptake inhibitor (SSRI) for their depression, but for whom the SSRI is not fully relieving their depression is ongoing (ClinicalTrials.gov Identifier: NCT05553691). The study comprises two groups:
(§2) “Test Cohort”: Patients who are currently on a stable treatment course of SSRIs, which have been ineffective in fully relieving their depression symptoms (SSRI prescribed outside of study). Patients were administered a single dose of DMT fumarate by intravenous infusion; and
(§3) “Control Cohort”: Patients who are not currently taking any pharmacological treatment for their depression (control group). Patients were administered a single dose of DMT fumarate by intravenous infusion.
(§4) DMT fumarate is administered by intravenous infusion on Day 1.
The administration of DMT fumarate was well-tolerated by all patients in both the test and the control cohorts, with no apparent differences between cohorts.

[2] = test system: patients with moderate-severe Major Depressive Disorder; assay: MADRS in unblinded study of single IV dose of DMT fumarate (NCT05553691); format: in vivo, human; conditions: for MADRS score: individual patients; for MADRS score / Remission (MADRS score ≤10) / Response (≥50% reduction in MADRS score from baseline): fumarate
Excerpt: as §1, §2, §3
(§5) Patients were recruited with moderate-severe Major Depressive Disorder (“MDD”) as defined by a Hamilton Depression Rating Scale (HAM-D) score of ≥14. Efficacy was assessed using the Montgomery-Asberg Depression Rating scale (MADRS) to measure any change in patients' depression symptoms from baseline (Day 0). Additional exploratory endpoints include the Beck Depression Inventory (BDI) to assess patients' self-reported depression, and the State-Trait Anxiety Inventory (STAI-T) to assess patients' self-reported anxiety.
as §4

[3] = test system: patients with moderate-severe Major Depressive Disorder; assay: BDI-II (Beck Depression Inventory), same study; format: in vivo, human; conditions: for BDI-II score: individual patients, fumarate
Excerpt: as §1, §2, §3, §5, §4

[4] = test system: patients with moderate-severe Major Depressive Disorder; assay: STAI-T (State-Trait Anxiety Inventory), same study; format: in vivo, human; conditions: for STAI-T score: individual patients, fumarate
Excerpt: as §1, §2, §3, §5, §4

[5] = 33 mg; cited from earlier work
[6] = test system: major depressive disorder; conditions: in vivo; cited from earlier work
[7] = Control Cohort, n=5, Day 8 vs Day 0
[8] = Control Cohort, n=5, Day 15 vs Day 0
[9] = Control Cohort, n=5, Day 29 vs Day 0
[10] = Test Cohort (on SSRI), n=12, Day 8
[11] = Test Cohort (on SSRI), n=12, Day 8 vs Day 0
[12] = Test Cohort (on SSRI), n=12, Day 15
[13] = Test Cohort (on SSRI), n=12, Day 15 vs Day 0
[14] = Test Cohort (on SSRI), n=12, Day 29
[15] = Test Cohort (on SSRI), n=12, Day 29 vs Day 0
[16] = Test Cohort (on stable SSRI), Day 15
[17] = Test Cohort (on stable SSRI), Day 29

SMILES: CN(C)CCc1c[nH]c2ccccc12.O=C(O)/C=C/C(=O)O [DMT fumarate, N,N-dimethyltryptamine fumarate]
- Tolerability ([1]; all patients in both test and control cohorts, no apparent differences between cohorts): well-tolerated
- Drug-related serious adverse events ([1]; both cohorts): No drug-related serious adverse events reported
- Resolution of drug-related AEs ([1]; both cohorts): majority of drug-related AEs were resolved during the dosing visit
- Severity of drug-related AEs ([1]; both cohorts): mild or moderate
- Number of drug-related adverse events (AEs) ([1]; control cohort): 3
- Number of drug-related adverse events (AEs) ([1]; test cohort (on SSRI)): 8
- MADRS score ([2]; Control Cohort (no pharmacological treatment), Day 8): 7 and 21 (2×) and 24 and 9
- MADRS score ([2]; Control Cohort (no pharmacological treatment), Day 15): 8 and 18 and 21 and 26 and 7
- MADRS score ([2]; Control Cohort (no pharmacological treatment), Day 29): 17 and 18 and 15 and 30 and 0
- MADRS Mean ([2]; Control Cohort, n=5, Day 8): 16.4
- MADRS Mean % change from Baseline [2, 7]: −53.1%
- MADRS Mean ([2]; Control Cohort, n=5, Day 15): 16.0
- MADRS Mean % change from Baseline [2, 8]: −54.2%
- MADRS Mean ([2]; Control Cohort, n=5, Day 29): 16.0
- Number of participants in remission (MADRS ≤10) ([2]; Control Cohort, n=5, Day 29): One
- Remission (MADRS score ≤10) ([2]; Control Cohort, n=5, Day 29): 20%
- Response (≥50% reduction in MADRS score from baseline) ([2]; Control Cohort, n=5, Day 29): 80%
- MADRS Mean % change from Baseline [2, 9]: −54.8%
- MADRS Mean [2, 10]: 6.7
- MADRS Mean % change from Baseline [2, 11]: −78.1%
- MADRS Mean [2, 12]: 6.0
- MADRS Mean % change from Baseline [2, 13]: −81.2%
- MADRS Mean [2, 14]: 3.0
- Number of participants in remission (MADRS ≤10) [2, 14]: 11 participants
- Remission (MADRS score ≤10) [2, 14]: 92%
- Response (≥50% reduction in MADRS score from baseline) [2, 14]: 100%
- MADRS Mean % change from Baseline [2, 15]: −90.2%
- Number of participants in remission (MADRS ≤10) ([2]; Test Cohort (on SSRI), n=12, all other time points (Day 8, Day 15)): 10 participants
- MADRS score ([2]; Test Cohort (on stable SSRI), Day 8, single IV infusion Day 1): 1 (3×) and 0 (2×) and 27 and 21 and 10 and 7 and 2 (2×) and 8
- MADRS score [2, 16]: 1 and 0 (4×) and 27 and 15 and 8 and 3 and 5 and 4 and 9
- MADRS score [2, 17]: 11 and 0 and 8 and 1 and 6 and 7 and 2
- BDI-II score ([3]; Control Cohort, Day 15): 20 and 17 (2×) and 22 and 8
- BDI-II score ([3]; Control Cohort, Day 29): 12 and 13 and 16 and 31 and 2
- BDI-II Mean ([3]; Control Cohort, n=5, Day 15): 16.8
- BDI-II Mean % change from Baseline [3, 8]: −54%
- BDI-II Mean ([3]; Control Cohort, n=5, Day 29): 14.8
- BDI-II Mean % change from Baseline [3, 9]: −59%
- BDI-II Mean [3, 12]: 5.1
- BDI-II Mean % change from Baseline [3, 13]: −84%
- BDI-II Mean [3, 14]: 3.1
- BDI-II Mean % change from Baseline [3, 15]: −88%
- BDI-II score [3, 16]: 0 (3×) and 3 (2×) and 29 and 6 and 5 (2×) and 1 (2×) and 8
- BDI-II score [3, 17]: 0 (5×) and 4 and 11 and 7 (2×) and 1 and 2 and 5
- STAI-T score ([4]; Control Cohort, Day 8): 60 and 40 and 44 and 50 and 38
- STAI-T score ([4]; Control Cohort, Day 15): 58 and 46 and 39 and 52 and 41
- STAI-T score ([4]; Control Cohort, Day 29): 51 and 49 and 47 and 59 and 32
- STAI-T Mean ([4]; Control Cohort, n=5, Day 8): 46.4
- STAI-T Mean % change from Baseline [4, 7]: −28.9%
- STAI-T Mean ([4]; Control Cohort, n=5, Day 15): 47.2
- STAI-T Mean % change from Baseline [4, 8]: −27.6%
- STAI-T Mean ([4]; Control Cohort, n=5, Day 29): 47.6
- STAI-T Mean % change from Baseline [4, 9]: −27.2%
- STAI-T Mean [4, 10]: 39.8
- STAI-T Mean % change from Baseline [4, 11]: −33.6%
- STAI-T Mean [4, 12]: 37.3
- STAI-T Mean % change from Baseline [4, 13]: −37.5%
- STAI-T Mean [4, 14]: 35.2
- STAI-T Mean % change from Baseline [4, 15]: −41.0%
- STAI-T score ([4]; Test Cohort (on stable SSRI), Day 8): 47 and 40 (2×) and 66 and 49 and 34 (2×) and 26 and 46 and 28 and 29 and 38
- STAI-T score [4, 16]: 44 and 30 and 62 and 45 and 33 (2×) and 40 (2×) and 42 and 25 and 22 and 32
- STAI-T score [4, 17]: 45 and 34 (2×) and 41 and 43 and 28 and 40 and 32 (2×) and 44 and 26 and 23

SMILES: CC(C)N(CCc1c[nH]c2cccc(OC(=O)CCCC(=O)O)c12)C(C)C [iprocin-4-glutarate, N,N diisopropyltryptamine-4-glutarate]
- Mean duration of the subjective experience [5]: 3.7 h

SMILES: CN(C)CCc1c[nH]c2ccccc12 [N,N-dimethyltryptamine, 2-(1H-indol-3-yl)-N,N-dimethylethanamine]
- Durability of antidepressant effect [6]: three months or more
